Assay results as given in patent publication US20210113602A1, “USE OF 6-THIO-2'-DEOXYGUANOSINE (6-THIO-dG) TO TREAT MELANOMA” (The Board of Regents of the University of Texas System, priority 2018, published 2021).

Key:
Assay type in all cases: cell-based, human
[1] = tested on: NRAS mutant SKNAS cells; assay: Cell death, Annexin V/PI; conditions: single agents or combination; 1 μM 6-thio-dG, 5 μM Gam
[2] = tested on: detoxifying enzymes such as SOD2, GPX1 and UCP2; assay: mRNA levels of detoxifying enzymes by qRT-PCR; conditions: 1 μM 6-thio-dG for 7 days
Experimental: FIGS. 3a-g. Telomere dysfunction enhances oxidative stress leading to upregulation of an antioxidant program. (FIGS. 3a-d) NRASmut melanoma cells were transduced with TERT shRNA (FIG. 3a, FIG. 3c) or treated with 1 μM 6-thio-dG for 7 days (FIG. 3b, FIG. 3d). mRNA levels of the indicated genes were quantified by qRT-PCR (FIG. 3a, FIG. 3b). Mitochondrial superoxide production was measured by MitoSox Red fluorescence (FIG. 3c, FIG. 3d) and expressed as fluorescence relative to vector or DMSO controls. (FIG. 3e) NRASmut melanoma cells were treated with 1 μM of 6-thio-dG for the indicated times and SOD2 protein levels measured by Western blotting. (FIG. 3f) SOD2 was silenced using shRNA. Transduced M93-047 cells were treated with DMSO or 1 μM of 6-thio-dG and cell death was assessed by Annexin V/PI straining. (FIG. 3g) M93-047 cells were transduced with a SOD2 lentiviral construct or empty vector control (pLX304). Transduced cells were treated with increasing doses (1, 2.5 and 5 μM) of 6-thio-dG for 7 days and cell death was assessed. Data represent average from three independent experiments±SEM. *p<0.05; **p<0.01; ***p<0.005 in unpaired Student's t-test.

[3] = tested on: KRAS mutant A549 cells; assay: Cell death, Annexin V/PI; conditions: 1 μM 6-thio-dG, 5 μM Gam

Nc1nc2c(ncn2[C@H]2C[C@H](O)[C@@H](CO)O2)c(=S)[nH]1 [6-thio-dG, 6-thio-2′-deoxy-guanosine]
cell death [1]: triggered significant death
GPX1 expression [2]: upregulation
SOD2 expression [2]: upregulation
UCP2 expression [2]: upregulation
cell death [3]: did not induce substantial death
